In patent publication US20260262643A1, “HERBICIDAL BENZOXAZINES” (FMC CORPORATION, priority 2022, published 2026):

Experiments:
barnyardgrass [1] = test: Test C preemergence; assay type: in vivo, Echinochloa crusgalli; settings: for Barnyardgrass plant response rating: 500 g ai/ha, preemergence, 0 to 100 scale (0 no effect, 100 complete control); for Plant response rating, Barnyardgrass: Preemergence, 125 g ai/ha, 0 to 100 scale, 0 no effect, 100 complete control
Outline: (§1)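 Test material, in non-phytotoxic solvent with surfactant, was sprayed on the soil directly after seeding (preemergence) or on young plants of 2–10 cm with one to two leaves (postemergence). Greenhouse, 10 days; 0–100 visual control scale.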

blackgrass [2] = test: Test C preemergence; assay type: in vivo, Alopecurus myosuroides; settings: for Blackgrass plant response rating: 500 g ai/ha, preemergence, 0 to 100 scale (0 no effect, 100 complete control); for Plant response rating, Blackgrass: Preemergence, 125 g ai/ha, 0 to 100 scale, 0 no effect, 100 complete control
Outline: as §1

corn [3] = test: Test C preemergence; assay type: in vivo, Zea mays; settings: for Corn plant response rating: 500 g ai/ha, preemergence, 0 to 100 scale (0 no effect, 100 complete control); for Plant response rating, Corn: Preemergence, 125 g ai/ha, 0 to 100 scale, 0 no effect, 100 complete control
Outline: as §1

foxtail, giant [4] = test: Test C preemergence; assay type: in vivo, Setaria faberi; settings: for Foxtail, Giant plant response rating: 500 g ai/ha, preemergence, 0 to 100 scale (0 no effect, 100 complete control); for Plant response rating, Foxtail, Giant: Preemergence, 125 g ai/ha, 0 to 100 scale, 0 no effect, 100 complete control
Outline: as §1

kochia [5] = test: Test C preemergence; assay type: in vivo, Bassia scoparia; settings: for Kochia plant response rating: 500 g ai/ha, preemergence, 0 to 100 scale (0 no effect, 100 complete control); for Plant response rating, Kochia: Preemergence, 125 g ai/ha, 0 to 100 scale, 0 no effect, 100 complete control
Outline: as §1

oat, wild [6] = test: Test C preemergence; assay type: in vivo, Avena fatua; settings: for Oat, Wild plant response rating: 500 g ai/ha, preemergence, 0 to 100 scale (0 no effect, 100 complete control); for Plant response rating, Oat, Wild: Preemergence, 125 g ai/ha, 0 to 100 scale, 0 no effect, 100 complete control
Outline: as §1

pigweed, palmer [7] = test: Test C preemergence; assay type: in vivo, Amaranthus palmeri; settings: for Pigweed, Palmer plant response rating: 500 g ai/ha, preemergence, 0 to 100 scale (0 no effect, 100 complete control); for Plant response rating, Pigweed, Palmer: Preemergence, 125 g ai/ha, 0 to 100 scale, 0 no effect, 100 complete control
Outline: as §1

ragweed [8] = test: Test C preemergence; assay type: in vivo, Ambrosia artemisiifolia; settings: for Ragweed plant response rating: 500 g ai/ha, preemergence, 0 to 100 scale (0 no effect, 100 complete control); for Plant response rating, Ragweed: Preemergence, 125 g ai/ha, 0 to 100 scale, 0 no effect, 100 complete control
Outline: as §1

ryegrass, Italian [9] = test: Test C preemergence; assay type: in vivo, Lolium multiflorum; settings: for Ryegrass, Italian plant response rating: 500 g ai/ha, preemergence, 0 to 100 scale (0 no effect, 100 complete control); for Plant response rating, Ryegrass, Italian: Preemergence, 125 g ai/ha, 0 to 100 scale, 0 no effect, 100 complete control
Outline: as §1

soybean [10] = test: Test C preemergence; assay type: in vivo, Glycine max; settings: for Soybean plant response rating: 500 g ai/ha, preemergence, 0 to 100 scale (0 no effect, 100 complete control); for Plant response rating, Soybean: Preemergence, 125 g ai/ha, 0 to 100 scale, 0 no effect, 100 complete control
Outline: as §1

wheat [11] = test: Test C preemergence; assay type: in vivo, Triticum aestivum; settings: for Wheat plant response rating: 500 g ai/ha, preemergence, 0 to 100 scale (0 no effect, 100 complete control); for Plant response rating, Wheat: Preemergence, 125 g ai/ha, 0 to 100 scale, 0 no effect, 100 complete control
Outline: as §1

barnyardgrass [12] = test: Test C postemergence; assay type: in vivo, Echinochloa crusgalli; settings: 10 days, 0 to 100 scale (0 no effect, 100 complete control)
Outline: as §1

blackgrass [13] = test: Test C postemergence; assay type: in vivo, Alopecurus myosuroides; settings: 10 days, 0 to 100 scale (0 no effect, 100 complete control)
Outline: as §1

corn [14] = test: Test C postemergence; assay type: in vivo, Zea mays; settings: 10 days, 0 to 100 scale (0 no effect, 100 complete control)
Outline: as §1

foxtail, giant [15] = test: Test C postemergence; assay type: in vivo, Setaria faberi; settings: 10 days, 0 to 100 scale (0 no effect, 100 complete control)
Outline: as §1

kochia [16] = test: Test C postemergence; assay type: in vivo, Bassia scoparia; settings: 10 days, 0 to 100 scale (0 no effect, 100 complete control)
Outline: as §1

oat, wild [17] = test: Test C postemergence; assay type: in vivo, Avena fatua; settings: 10 days, 0 to 100 scale (0 no effect, 100 complete control)
Outline: as §1

pigweed, palmer [18] = test: Test C postemergence; assay type: in vivo, Amaranthus palmeri; settings: 10 days, 0 to 100 scale (0 no effect, 100 complete control)
Outline: as §1

ragweed [19] = test: Test C postemergence; assay type: in vivo, Ambrosia artemisiifolia; settings: 10 days, 0 to 100 scale (0 no effect, 100 complete control)
Outline: as §1

ryegrass, Italian [20] = test: Test C postemergence; assay type: in vivo, Lolium multiflorum; settings: 10 days, 0 to 100 scale (0 no effect, 100 complete control)
Outline: as §1

soybean [21] = test: Test C postemergence; assay type: in vivo, Glycine max; settings: 10 days, 0 to 100 scale (0 no effect, 100 complete control)
Outline: as §1

wheat [22] = test: Test C postemergence; assay type: in vivo, Triticum aestivum; settings: 10 days, 0 to 100 scale (0 no effect, 100 complete control)
Outline: as §1

galium = test: Test C postemergence; assay type: in vivo, Galium aparine; settings: 10 days, 0 to 100 scale (0 no effect, 100 complete control)
Outline: as §1

horseweed = test: Test C postemergence; assay type: in vivo, Erigeron canadensis; settings: 10 days, 0 to 100 scale (0 no effect, 100 complete control)
Outline: as §1

barnyardgrass [23] = test: Test D flooded paddy test; assay type: in vivo, Echinochloa crus-galli; settings: 250 g ai/ha, applied to paddy water, visual rating after 13 to 14 days, scale 0 to 100 (0 no effect, 100 complete control)
Outline: (§2)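 Visual ratings from 0, meaning no effect, to 100, meaning complete control, were assigned against untreated controls 13 to 14 days after compounds were added to the floodwater of pots kept 3 cm deep, with plants at the 2-leaf stage.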

ducksalad = test: Test D flooded paddy test; assay type: in vivo, Heteranthera limosa; settings: 250 g ai/ha, applied to paddy water, visual rating after 13 to 14 days, scale 0 to 100 (0 no effect, 100 complete control)
Outline: as §2

rice = test: Test D flooded paddy test; assay type: in vivo, Oryza sativa; settings: 250 g ai/ha, applied to paddy water, visual rating after 13 to 14 days, scale 0 to 100 (0 no effect, 100 complete control)
Outline: as §2

sedge, umbrella = test: Test D flooded paddy test; assay type: in vivo, Cyperus difformis; settings: 250 g ai/ha, applied to paddy water, visual rating after 13 to 14 days, scale 0 to 100 (0 no effect, 100 complete control)
Outline: as §2

Cc1cccc2c1OC(C(F)(F)F)CN2C(=O)c1ccnc(-n2cnc(C(C)C)n2)c1 (single isomer, unassigned) [Compound 328]
85: Plant response rating, Sedge, Umbrella (Flood) (sedge, umbrella)
90: Plant response rating, Barnyardgrass (barnyardgrass [1]) | Corn plant response rating (corn [3]) | Oat, Wild plant response rating (oat, wild [6]) | Plant response rating, Ryegrass, Italian (ryegrass, Italian [9]) | Wheat plant response rating (wheat [11]) | Plant response rating, Barnyardgrass (barnyardgrass [12]; 500 g ai/ha, postemergence) | Plant response rating, Foxtail, Giant (foxtail, giant [15]; 500 g ai/ha, postemergence) | Plant response rating, Foxtail, Giant (foxtail, giant [15]; Postemergence, 125 g ai/ha) | Plant response rating, Pigweed, Palmer (pigweed, palmer [18]; 500 g ai/ha, postemergence) | Plant response rating, Ryegrass, Italian (ryegrass, Italian [20]; 500 g ai/ha, postemergence)
70: Kochia plant response rating (kochia [5]) | Plant response rating, Corn (corn [14]; 500 g ai/ha, postemergence)
20: Plant response rating, Wheat (wheat [11]) | Plant response rating, Corn (corn [14]; Postemergence, 125 g ai/ha) | Plant response rating, Oat, Wild (oat, wild [17]; Postemergence, 125 g ai/ha)
0: Plant response rating, Kochia (kochia [5]) | Plant response rating, Ragweed (ragweed [8]) | Plant response rating, Horseweed (horseweed; Postemergence, 125 g ai/ha) | Plant response rating, Rice (Flood) (rice)
60: Plant response rating, Barnyardgrass (barnyardgrass [12]; Postemergence, 125 g ai/ha) | Plant response rating, Blackgrass (blackgrass [13]; Postemergence, 125 g ai/ha) | Plant response rating, Ragweed (ragweed [19]; 500 g ai/ha, postemergence) | Plant response rating, Horseweed (horseweed; 500 g ai/ha, postemergence)
40: Plant response rating, Pigweed, Palmer (pigweed, palmer [7]) | Plant response rating, Oat, Wild (oat, wild [17]; 500 g ai/ha, postemergence) | Plant response rating, Ragweed (ragweed [19]; Postemergence, 125 g ai/ha)
100: Barnyardgrass plant response rating (barnyardgrass [1]) | Foxtail, Giant plant response rating (foxtail, giant [4]) | Plant response rating, Foxtail, Giant (foxtail, giant [4]) | Pigweed, Palmer plant response rating (pigweed, palmer [7]) | Ryegrass, Italian plant response rating (ryegrass, Italian [9]) | Soybean plant response rating (soybean [10]) | Plant response rating, Soybean (soybean [10]) | Plant response rating, Soybean (soybean [21]; 500 g ai/ha, postemergence) | Plant response rating, Soybean (soybean [21]; Postemergence, 125 g ai/ha) | Plant response rating, Galium (galium; 500 g ai/ha, postemergence)
15: Plant response rating, Barnyardgrass (Flood) (barnyardgrass [23])
80: Blackgrass plant response rating (blackgrass [2]) | Plant response rating, Blackgrass (blackgrass [2]) | Plant response rating, Blackgrass (blackgrass [13]; 500 g ai/ha, postemergence) | Plant response rating, Kochia (kochia [16]; 500 g ai/ha, postemergence) | Plant response rating, Galium (galium; Postemergence, 125 g ai/ha)
50: Ragweed plant response rating (ragweed [8]) | Plant response rating, Kochia (kochia [16]; Postemergence, 125 g ai/ha) | Plant response rating, Pigweed, Palmer (pigweed, palmer [18]; Postemergence, 125 g ai/ha) | Plant response rating, Ryegrass, Italian (ryegrass, Italian [20]; Postemergence, 125 g ai/ha)
30: Plant response rating, Corn (corn [3]) | Plant response rating, Oat, Wild (oat, wild [6]) | Plant response rating, Wheat (wheat [22]; 500 g ai/ha, postemergence) | Plant response rating, Wheat (wheat [22]; Postemergence, 125 g ai/ha) | Plant response rating, Ducksalad (Flood) (ducksalad)

C=C(C)c1cc(C(=O)N2C[C@H](C)Oc3c(Cl)cccc32)cc(-n2cncn2)c1 [Compound 317]
20: Plant response rating, Pigweed, Palmer (pigweed, palmer [7]) | Plant response rating, Kochia (kochia [16]; Postemergence, 125 g ai/ha) | Plant response rating, Wheat (wheat [22]; 500 g ai/ha, postemergence)
90: Foxtail, Giant plant response rating (foxtail, giant [4]) | Pigweed, Palmer plant response rating (pigweed, palmer [7])
30: Plant response rating, Oat, Wild (oat, wild [17]; 500 g ai/ha, postemergence)
100: Plant response rating, Soybean (soybean [21]; 500 g ai/ha, postemergence)
0: Plant response rating, Barnyardgrass (barnyardgrass [1]) | Plant response rating, Blackgrass (blackgrass [2]) | Plant response rating, Corn (corn [3]) | Kochia plant response rating (kochia [5]) | Plant response rating, Kochia (kochia [5]) | Plant response rating, Oat, Wild (oat, wild [6]) | Ragweed plant response rating (ragweed [8]) | Plant response rating, Ragweed (ragweed [8]) | Soybean plant response rating (soybean [10]) | Plant response rating, Soybean (soybean [10]) | Wheat plant response rating (wheat [11]) | Plant response rating, Wheat (wheat [11]) | Plant response rating, Blackgrass (blackgrass [13]; Postemergence, 125 g ai/ha) | Plant response rating, Oat, Wild (oat, wild [17]; Postemergence, 125 g ai/ha) | Plant response rating, Ragweed (ragweed [19]; 500 g ai/ha, postemergence) | Plant response rating, Ragweed (ragweed [19]; Postemergence, 125 g ai/ha) | Plant response rating, Ryegrass, Italian (ryegrass, Italian [20]; Postemergence, 125 g ai/ha) | Plant response rating, Horseweed (horseweed; 500 g ai/ha, postemergence) | Plant response rating, Horseweed (horseweed; Postemergence, 125 g ai/ha) | Plant response rating, Barnyardgrass (Flood) (barnyardgrass [23]) | Plant response rating, Ducksalad (Flood) (ducksalad) | Plant response rating, Rice (Flood) (rice) | Plant response rating, Sedge, Umbrella (Flood) (sedge, umbrella)
60: Ryegrass, Italian plant response rating (ryegrass, Italian [9]) | Plant response rating, Blackgrass (blackgrass [13]; 500 g ai/ha, postemergence)
40: Oat, Wild plant response rating (oat, wild [6]) | Plant response rating, Ryegrass, Italian (ryegrass, Italian [9]) | Plant response rating, Corn (corn [14]; 500 g ai/ha, postemergence) | Plant response rating, Ryegrass, Italian (ryegrass, Italian [20]; 500 g ai/ha, postemergence)
50: Barnyardgrass plant response rating (barnyardgrass [1]) | Blackgrass plant response rating (blackgrass [2]) | Plant response rating, Pigweed, Palmer (pigweed, palmer [18]; 500 g ai/ha, postemergence) | Plant response rating, Galium (galium; Postemergence, 125 g ai/ha)
10: Corn plant response rating (corn [3]) | Plant response rating, Foxtail, Giant (foxtail, giant [4]) | Plant response rating, Barnyardgrass (barnyardgrass [12]; Postemergence, 125 g ai/ha) | Plant response rating, Corn (corn [14]; Postemergence, 125 g ai/ha) | Plant response rating, Foxtail, Giant (foxtail, giant [15]; Postemergence, 125 g ai/ha) | Plant response rating, Pigweed, Palmer (pigweed, palmer [18]; Postemergence, 125 g ai/ha) | Plant response rating, Wheat (wheat [22]; Postemergence, 125 g ai/ha)
70: Plant response rating, Barnyardgrass (barnyardgrass [12]; 500 g ai/ha, postemergence) | Plant response rating, Foxtail, Giant (foxtail, giant [15]; 500 g ai/ha, postemergence) | Plant response rating, Kochia (kochia [16]; 500 g ai/ha, postemergence) | Plant response rating, Soybean (soybean [21]; Postemergence, 125 g ai/ha) | Plant response rating, Galium (galium; 500 g ai/ha, postemergence)
